Experimental data from patent US20250288645A1, “USE OF GsMTx4 AND GsMTx4 CONJUGATES TO IMPROVE RECOVERY FROM JOINT INJURY” (priority 2023, published 2025).
“Also recorded” adds a separate entry of the source. No end group written: not given here.

Assays:
chondrocytes = experiment: Massive rotator cuff tear mouse model: chondrocyte mechano-vulnerability; format: in vivo; details: rotator cuff injury, subcutaneous injection; versus contralateral control joint and saline-injected animals
Method: Ethical approval was obtained from the appropriate institutional committee Humeri were harvested from wild-type 12-22 week old C57Bl/6 male and female mice. Each specimen was placed in calcium imaging buffer with 2 mM calcium chloride and subsequently incubated with 10 μM calcein-AM for 30 minutes at 37° C. To indicate intracellular esterase activity of living cells, each specimen was incubated with 10 μM yoda1, a Piezo1-specific agonist, 5 nM GSK101, a TRPV4-agonist, or control (DMSO 0.25%, n=7-10/group) in calcium imaging buffer for 15 minutes. Specimens were then incubated with 1.5 nM ethidium homodimer-1 for 3 minutes to indicate loss of plasma membrane integrity in dead cells. The specimen was then arranged in a custom 3-D printed holding device such that the chondrocytes within the apex of sphericity of the humeral head were facing the glass well of a dish to be imaged on an inverted confocal microscope. […] A custom MATLAB image processing algorithm was developed to quantify cell viability. […] Then, watershed segmentation, distance transform, and centroid approximation algorithms were created and applied to segment and quantify individual cells based on intensity values. This facilitated the cell counting process, allowed quantification of the total cell area, and allowed adjustment of the region of interest between before- and after-impact micrographs. […]

CGRP^+ pain nerves = experiment: Bilateral ACL-injury mouse model: knee nerve innervation and CGRP+ pain nerves; format: in vivo
Text: Some of the studies reported below involved a murine model of animals which were subjected to trauma by injuring an ACL (as an exemplar of injury to any of the four knee ligaments). Without wishing to be bound by theory, it is believed that injury to the ACL changes the mechanical loading on the joint, promoting imbalanced metabolism in articular cartilage, and promoting the development of post-traumatic OA, or “PTOA.” Animals were divided into four cohorts: the first group, the controls, were not subjected to trauma, the second group underwent bilateral ACL injury, but no further treatment, the third group underwent bilateral ACL injury, and was then administered saline solution at days 3, 10 and 17 post-injury, and the fourth group underwent bilateral ACL injury, and was then administered GsMTx4 peptide at days 3, 10 and 17 post-injury. The animals were evaluated by gait analysis, a cell vulnerability assay, and a histological evaluation/immunofluorescence assay. In one aspect, the assays compared the expression of Piezo1 and Piezo2 in chondrocytes from injured joints, from uninjured controls, and from injured joints injured and then treated with GsMTx4 and from joints that were injured and then treated only with saline solution. The study also looked at calcitonin gene-related peptide (“CGRP”)-containing (“CGRP^+”) nerve endings. CGRP^+ nerves have been identified as principal coordinators of thermal and mechanical sensitivity in various pain models. See, e.g., Powell, et al., Nat Commun 12, 5812 (2021); doi.org/10.1038/s41467-021-26100-6.

[1] = ACL-I mice, GsMTx4 post-injury, versus saline-treated ACL-I mice

## GsMTx4 (GCLEFWWKCNPNDDKCCRPKLKCSKLFKLCNFSF-NH2; ends and bridges not checked; listed as Grammostola spatulata)
chondrocytes
  chondrocyte vulnerability: reduction in chondrocyte vulnerability
CGRP^+ pain nerves; [1]
  CGRP^+ pain nerves / CGRP level in injured knee: decreased CGRP^+ pain nerves; also recorded: lower levels of CGRP present
  nerve innervation in the knee: decreased nerve innervation in the knee
CGRP^+ pain nerves; bilateral ACL injury, versus no treatment or saline
  pain nerves in the meniscus of the injured joints: reduced the increase of pain nerves in the meniscus
